Measurements taken from patent US6623953B1, “Enzymatic composition and method for seasoning wood” (ETS. Robert Stiernon S.A., priority 1998, dated 2003).

Tested on: phenol heterosidase activity of the enzymatic preparation
Assay: Inhibition of the phenol heterosidase activity by phenol compounds
Assay type: biochemical
Conditions: concentration 1 g/l
Method: The measurement of phenol heterosidase enzymatic activity PeH is based on the release of carboxylic functions which lower the pH of the reaction medium. 9 mg of an aqueous extract of green oak are added, in a test tube, to 9 ml of a 0.1 M NaCl solution, pH 4.5, containing 1% of enzymatic preparation EP. A control tube is prepared under the same conditions, without enzymes. The pH is measured in the two tubes at time 0 (pHc0 for the control and pHe0 for the enzyme) and after 4 hours of incubation at 25° C. (pHc4 and pHe4, respectively). The optimum conditions were established beforehand and there is perfect correlation between the release of glucose and the drop in pH.
The phenol heterosidase activity is calculated from the equation:
PeH=[(pHc0−pHc4)−(pHe0−pHe4)/4]×100 (PeH being expressed in 10^−3 units of pH/ml/h)
In general, all the heteroside substrates are used by the enzymatic activities present. Only the condensed tannins from grape show inhibition of the phenol heterosidase activity.

PeH in presence of phenol compound: 100 10^−3 pH/ml/h
Structure (SMILES): O=C1OCC2OC(=O)c3cc(O)c(O)c(O)c3-c3c(O)c(O)c(O)c4c3C(=O)OC(C2OC(=O)c2cc(O)c(O)c(O)c2-c2c1cc(O)c(O)c2O)C1OC(=O)c2c-4c(O)c(O)c(O)c2C1O (stereo not shown) [vescalagin, Vescalagin]
